# Test results: patent publication US20220257531A1, “COMPOSITIONS AND METHODS FOR TREATMENT OF A FIBROTIC DISEASE” (Avexxin AS, priority 2017, published 2022)
# Tested on: BLM-induced pulmonary fibrosis in C57BL/6J mice
# Experiment: Bleomycin (BLM)-induced pulmonary fibrosis model, Example 4
# Assay type: in vivo
# Text: The bleomycin model of idiopathic fibrosis (IPF) is a well-characterized and currently an extensively used animal model of Interstitial lung disease (ILD) due to its: i) ability to reproduce many aspects of the disease, ii) good reproducibility, and iii) ease of induction. Overall, studies using the bleomycin model have identified many of the cellular and molecular mechanisms now recognized as being important in pathogenesis of IPF, as well as novel therapies for ILDs. The model is based on intratracheal administration of bleomycin in mice that results in alveolar epithelial damage, alveolar inflammation and fibrosis within a period of 21 days. Consequently, the model allows therapeutic testing of novel agents within a reasonably short period of time (Liu T eta al, Methods Mol Biol. 2017;1627:27-42).
# Test Article & Formulations Compound B (Synthetica A/S, Norway) was formulated for subcutaneous administration in a nano-emulsion containing 2 mg/ml Compound B, 2 mg/ml MCT oil (Lipoid), 2 mg/ml Polysorbate 80 (Fluka) and sodium citrate buffer 10 mM (pH 7). The final solution was sterilized by filtration and saturated with Argon 5.0 AGA prior to aliquoting in 10 ml tubes stored at −20° C. till further use. A separate Polysorbate 80- and sodium citrate buffer-based vehicle solution without Compound B and MCT oil was also prepared, sterilized, aliquoted and stored, serving as the subcutaneous vehicle control used in the UUO animal study. Nintedanib (approved and commercialized for IPF under the brand names Ofev/Vargatef) was used as a positive control. The compound was purchased from Chemexpress Co., Ltd. (China) and suspended in 1% methylcellulose.
# Six-week-old female C57BL/6J mice were obtained from Japan SLC, Inc. (Japan). Animals were kept in an animal room facility at a temperature of 23±2° C., humidity of 45±10%, under a 12-hour light and dark cycle (light from 8:00 to 20:00). A high pressure of 20±4 Pa was kept in the experimental room to prevent contamination. The animals were housed in TPX cages (CLEA Japan; maximum of 6 mice per cage) and fed with a sterilized normal diet (CE-2; CLEA Japan, Japan) provided ad libitum, being placed in a metal lid on the top of the cage. Sterilized Paper-Clean (Japan SLC) was used for bedding and was replaced once a week. Pure water was provided ad libitum from a water bottle equipped with a rubber stopper and a sipper tube. […]
# The viability, clinical signs and behavior were monitored every day. Body weight was recorded daily after the day of starting the BLM administration (Day 0). […]
# To quantify lung hydroxyproline content, frozen whole left lung samples were processed by an acid hydrolysis method as follows. […]
structure (smiles),measurement,setting,value
COC(=O)c1ccc2c(c1)NC(=O)/C2=C(\Nc1ccc(N(C)C(=O)CN2CCN(C)CC2)cc1)c1ccccc1 [Nintedanib],Body weight changes at sacrifice,"100 mg/kg per os daily Day 7-20, Day 21, % of baseline Day 0, mean ± SD",103 ± 5%
same,Lung Hydroxyproline,"100 mg/kg per os daily Day 7-20, Day 21, mean ± SD",50.6 ± 14.5 μg/ml left lung
same,Ashcroft score,"Masson's Trichrome, 100 mg/kg per os daily Day 7-20, mean ± SD",1.6 ± 1.0
same,mice found dead before reaching Day 21,"per treatment group of 12, treatment Day 7-20",three out of 12
